Data set [1] concerns human monocytes. The data set can be described thus: LAF-test (thymocyte proliferation), monokine production by human monocytes. It counts as cell-based. Conditions: Monocyte, substantially pure Z-isomeric form, 2 separate experiments, 3 parallel determinations, read-out: ED50 (inhibition of monokine production). Here is the method:
(§1) Mononuclear cells are obtained from the blood of healthy volunteers via centrifugation and cultivated on tissue culture dishes with test compound at varying concentrations [Schnyder et al., J. Immunol., 138, 496-503 (1987)]. The non-adherent lymphocytes are removed after 4 hours by washing several times. Fresh medium, test compound and lipopolysaccharide (LPS) as stimulant are added and the monocytes incubated for further 19 hours. The pooled culture media are diluted 1:10 (v:v) with fresh medium and added to confluent rabbit chondrocytes. MP activity in the chondrocyte culture medium is assayed after a further 2 days. COMPOUNDS OF THE INVENTION, in particular compounds D2 and K1, are active in suppressing monokine release in the above test method at concentrations of the order of from about 30 to about 100 μM. Thus determined ED50 S for the compounds D2 and K1 each in substantially pure Z-isomeric form in a series of 3 or 7 separate experiments each with 3 parallel determinations are, for both compounds, of the order of 60 to 100 μM.
Lymphocyte proliferation is the standard test for monokine activity. […] The cells are incubated for 2 days in 96-well culture plates and the proliferation rate determined using a ^3 H-thymidine pulse (1 μC/well) during the final 6 hours. The incorporated radioactivity is collected on filter paper and counted. […]

Data set [2] can be described thus: Acute toxicity (LD50) in rats. Conditions: rat, in vivo, substantially pure Z-isomeric form.
Data set [3] relates to IL-1β. Kind of data set: RIA-Kit IL-1 quantification in human monocyte cultures. It counts as cell-based. Here is the method: as §1
The procedures of example 1.1.b. above are repeated and IL-1 concentrations in recovered, undiluted culture medium determined employing a CISTRON IL-1 radioimmuno assay kit (the CISTRON kit is obtainable from Cistron, 10, Bloomfield Avenue, P.O. Box 2004, Pine Brook, NJ 07 058 USA. It is IL-1β specific and recognises both intra- and extra-cellular material).

Data set [4] deals with human monocytes. Kind of data set: Effect on the secretion of monokines (IL-1, TNF-α, IL-6). The format is cell-based. Conditions: IL-1 and TNF-α by RIA, IL-6 by bioassay. As to the method: Besides IL-1, TNF-α and IL-6 are two well recognized monokines that are released from stimulated monocytes.
Culture media from human monocytes are prepared as described above. The IL-1 and TNF-α content is monitored by the RIA-test, IL-6 by bioassay as disclosed below.
To measure IL-6 in conditioned media from human monocytes, 2.4×10^4 cells/ml B13.29 in 0.2 ml are cultured on 96-well plates (Costar) for 48 h with culture media, diluted in serum free Iscove's modified Dulbecco's medium supplemented with 200 U/ml of recombinant IL-6, 50 μM 2-mercaptoethanol and antibiotics. The proliferation rates are determined using a ^3 H-thymidine pulse (1 μC/well) during the final 6 h. The incorporated radioactivity is collected on filter paper, counted and related to a standard preparation of IL-6.

The subject of data set [5] is lysozyme. Kind of data set: Secretion of lysozyme from human monocytes. It counts as cell-based. Particulars: human monocyte culture media. As to the method:
Culture media from human monocytes are prepared as disclosed above. Lysozyme and lactate dehydrogenase (LDH) are monitored kinetically by using a Twinreader (Flow Laboratories AG) linked to a personal computer. Samples (50 μl) for LOH are mixed with 200 μl substrate mixture, containing in final concentrations 50 mM phosphate buffer, pH 7.5, 0.8 mM sodium pyruvate, 0.24 mM NADH and 0.04 % bovine albumin and the changes in absorbance at 340 nm are measured 11 times at 1-min intervals. The computer calculates the initial velocities which are used to determine the units. Samples (50 μl) for lysozyme are mixed with 100 μl suspension of 1.2 mg/ml M. Lysodeikticus in 67 mM phosphate buffer pH 6.2 and the changes in turbidity at 492 nm monitored 11 times at 4-min intervals. With every assay series, a calibration curve is made with crystalline hen egg-white lysozyme [J. Schnyder et.al., J. Exp. Med. 148, 435 (1978)]. No significant leakage of LDH from control and treated cell cultures is observed.

The test system of data set [6] is psoriatic arthritis or seronegative spondylarthrosis or osteoarthrosis. The data set can be described thus: Clinical trial IV: degenerative joint disease. It counts as in vivo, human. Conditions: ca. 200 to 1200 mg p.o./day, 8 weeks. As to the method:
COMPOUND OF THE INVENTION, e.g. compound D2 or K1 in substantially pure Z-isomeric form, is administered at dosages of from ca. 200 to 1200 mg/p.o./day, once or in divided dosages up to 4×daily for 8 weeks. The subjects are examined at a regular interval of 2 weeks for disease progression on parameters such as pain sensation at the joints, evaluation of the functional capacity according to Steinbrocker, hand grip strength or Richtie Index.

Data set [7] concerns adjuvant arthritis. Kind of data set: Disease modifying activity in an animal model of rheumatoid arthritis (adjuvant arthritis). Conditions: substantially pure Z-isomeric form. The format is in vivo, rat. Here is the method:
Following induction of adjuvant arthritis in 48 adult female rats, the test compound is administered orally for 40 days. Articular swelling and bone densitometry are measured at days 10, 20, 30 and 40 and compared with control animals receiving placebo. In addition, cartilage glycosaminoglycans (GAG) are measured in femoral condyles removed on completion of the treatment period. α2 -Macroglobulin is determined in serum on days 0, 3, 6, 9, 16 and 22.
The procedure for in vivo estimation of bone density in adult rats as used in the above test method is based on the radiographic densitometric method described by Albanese et al. in J. Amer. Ger. Soc. 17, 142-153 (1969). A longitudinal bone survey is conducted in the arthritic rats during the treatment with the test substance and compared with untreated arthritic rats and control animals. In vivo quantitative radiographic scanning is performed taking the trabecular mass as the parameter. […] Because of the characteristics of the system (image darkening representing increased Relative Optical Density) the recorded values are expressed as (1-x) where x Is the experimentally measured ROD in order to conform to the biological effect of X-rays on bone tissue (i.e. film darkening indicates decrease in bone density). […]

Where [8] appears, read: CISTRON IL-1 radioimmuno assay, human monocytes.

These results are taken from patent publication US4956381A, “Treating tissue calcium depletion or degenerative processes in bone or cartilage” (Sandoz Ltd., priority 1987, dated 1990).

Usually LD50 stands for the dose expected to kill half of the subjects tested. Read a low LD50 as greater toxicity.

As to `COC1=Cc2ccccc2/C(=C/C(=O)O)c2ccsc21` [Compound D2, [10-Methoxy-4H-benzo[4,5]cyclohepta[1,2-b]thiophen-4-ylidene]-acetic acid], the IC50 is roughly 30 µM in data set [1] and roughly 40 µM in data set [3] (Homo sapiens, Monocyte, 19 h, substantially pure Z-isomeric form, 2-8 experiments, 3 parallel determinations, read-out: ED50 for extra-cellular IL-1 level suppression). In data set [2] (iv, 7 days), this compound displayed an LD50 at 168 h of 50 mg/kg. The LD50 at 336 h in data set [2] (po, 14 days) worked out at 1720 mg/kg. Also, the “extra-cellular IL-1 level” value in data set [3] (setting [8]) is given as “extra-cellular content is reduced significantly”. Further, in data set [3] (setting [8]), the “intracellular IL-1 level” value was “remain substantially unaffected”. Besides, the “inhibition of release of IL-1 compared with IL-6 and TNF-α” value in data set [4] is “inhibit the release of IL-1 in a more significant rate than that of IL-6 and TNF-α”. The release of lysozyme result in data set [5] was “reduces the release of lysozyme only marginally and not under the level of unstimulated controls”. In addition, the “condition (degenerative joint disease)” value in data set [6] was “improvement in condition after the 8 week treatment period”. The “protective effect on cartilage and bone” value in data set [7] (rats with adjuvant arthritis) was “show a protective effect on cartilage and bone in rats with adjuvant arthritis”. The disease modifying activity result in data set [7] (especially after 30 days treatment) is “exhibit disease modifying activity especially after a period of 30 days treatment”.
